Assay results from US20240327463A1, “ANTIBACTERIAL PRODUCTS” (priority 2017, published 2024).
Converted amounts (≈) assume the structure as drawn. Read-outs that look alike come from different tables or passages of the source. Bridge positions count the residues as written; N and C are the ends. Square brackets hold non-standard residues; d marks the D form. Peptide text beside a SMILES is read from it. dNMeF = CN[C@H](Cc1ccccc1)C(=O)O

How the values were obtained:
[1] = system: MRSA ATCC 33591
Procedure, shortened: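 Twofold dilutions of DMSO-solubilised peptides (from 512 μg/ml) in Mueller Hinton; 24 h incubation, 37° C; visible growth scored.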

[2] = system: VRE ATCC 700802; assay: microbe, parasite or virus in culture
Description: (§1) For MIC testing all peptides were dissolved in DMSO (according to the method of L. L. Ling, et al., Nature 2015, 517, 455-459). Bacteria were grown on Mueller Hinton broth (oxoid). All incubations were at 37° C. Dilutions were carried out using Mueller Hinton. 100 μl of autoclaved Mueller Hinton broth was added to wells 2-12 on a 96-well plate. 200 μl of the peptide was added to well one at a concentration of 512 μg/ml. 100 μl of peptide in well one was taken up and pipetted into well two. The mixture was then mixed via pipetting before 100 μl was taken up and pipetted into well three. This process was repeated up to well 11. […] This was repeated three times. The 96-well plates were then incubated for 24 hours. The MIC was determined to be the lowest concentration at which there was no growth visible.

[3] = system: MRSA DR 42412 (sputum); assay: microbe, parasite or virus in culture
Description: as §1

[4] = system: MRSA DM21455 (eye); assay: microbe, parasite or virus in culture
Description: as §1

[5] = system: Staphylococcus aureus ATCC 29213; assay: microbe, parasite or virus in culture
Description: as §1

[6] = system: VRE ATCC 29212; assay: microbe, parasite or virus in culture
Description: as §1

[7] = system: MRSA ATCC 700699; assay: microbe, parasite or virus in culture
Description: as §1

[8] = system: M. smegmatis ATCC 607; assay: microbe, parasite or virus in culture
Description: as §1

[9] = system: S. aureus ATCC 29213; assay: Mice-eye model of S. aureus keratitis; type: in vivo; conditions: for mean corneal thickness: 0.3% topical, baseline 93.8±2.9 μm
Text: The in vivo efficacy of Compound 26 in the mice-eye model of S. aureus keratitis was examined. S. aureus is one of the major etiological agents for bacterial keratitis and the toxic secretions produced by this microorganism have been implicated in corneal melt, leading to significant morbidity and vision loss. […] A total of 8 doses were applied and the progression of the infection was monitored by slit lamp examination, anterior segment optical coherent tomography (AS-OCT) and microbiological enumeration of the bacterial bioburden. Mice cornea treated with PBS had severe clinical presentation indicated by chemosis, significant presence of hypopyon like materials and corneal infiltrates (FIG. 4).

[10] = system: Staphylococcus saprophyticus ATCC BAA 750; type: cell-based; conditions: ATCC BAA 750
Description: (§2) Bacteria were grown on Mueller Hinton broth (oxoid). All incubations were at 37° C. Dilutions were carried out using Mueller Hinton. […] This process was repeated up to well 11. […] This was repeated three times. […] Results are tabulated in the Examples.

[11] = system: Staphylococcus saprophyticus ATCC 49907; type: cell-based; conditions: ATCC 49907
Description: as §2

[12] = system: SE12228; type: cell-based
Description: as §2

[13] = system: Staphylococcus saprophyticus ATCC 15305; type: cell-based; conditions: ATCC 15305
Description: as §2

[14] = system: Staphylococcus saprophyticus ATCC 49453; type: cell-based; conditions: ATCC 49453
Description: as §2

[15] = system: Bacillus Cereus ATCC 11788; type: cell-based
Description: as §2

[16] = system: Bacillus Subtilis ATCC 6633; type: cell-based
Description: as §2

[17] = system: VRE 1001; type: cell-based, Enterococcus faecalis
Description: as §2

[18] = system: VRE 1008; type: cell-based, Enterococcus faecalis
Description: as §2

[19] = system: VRE 1002; type: cell-based, Enterococcus faecalis
Description: as §2

[20] = system: VRE 1004; type: cell-based, Enterococcus faecalis
Description: as §2

[21] = system: MRSA 1003; type: cell-based, Staphylococcus aureus
Description: as §2

[22] = Staphylococcus aureus ATCC 29213, Table 4B

SMILES | MIC (MRSA*) ([1]; ATCC 33591) [µg/mL] | MIC ([2]; ATCC 700802) [µg/mL] | MBC ([3]; DR 42412 (sputum)) [µg/mL] | MIC ([3]; DR 42412 (sputum)) [µg/mL] | MBC ([4]; DM21455 (eye)) [µg/mL] | MIC ([4]; DM21455 (eye)) [µg/mL] | MBC ([5]; ATCC 29213) [µg/mL] | MIC ([5]; ATCC 29213) [µg/mL] | MIC ([6]; ATCC 29212) [µg/mL] | MBC ([7]; ATCC 700699) [µg/mL] | MIC ([7]; ATCC 700699) [µg/mL] | MIC ([8]; ATCC 607) [µg/mL] | other results
CC[C@@H](C)[C@@H](NC(=O)[C@@H](CCC(N)=O)NC(=O)[C@H](CO)NC(=O)[C@@H](NC(=O)[C@@H](Cc1ccccc1)NC)[C@@H](C)CC)C(=O)N[C@H](C(=O)N[C@@H](CO)C(=O)N[C@H]1C(=O)N[C@@H](C)C(=O)N[C@@H](CC(C)C)C(=O)N[C@@H]([C@@H](C)CC)C(=O)O[C@H]1C)[C@@H](C)CC [Compound 19, Leu10-teixobactin] | 0.25 (≈ 0.208 µM) | 0.25 (≈ 0.208 µM) | ≤0.0625 | ≤0.0625 | ≤0.0625 | ≤0.0625 | 0.125 (≈ 0.104 µM) | ≤0.0625 | 0.25 (≈ 0.208 µM) | 2 (≈ 1.66 µM) | 0.25 (≈ 0.208 µM) | 1 (≈ 0.832 µM) | –
CC[C@@H](C)[C@@H](NC(=O)[C@@H](CCC(N)=O)NC(=O)[C@H](CO)NC(=O)[C@@H](NC(=O)[C@@H](Cc1ccccc1)NC)[C@@H](C)CC)C(=O)N[C@H](C(=O)N[C@@H](CO)C(=O)N[C@H]1C(=O)N[C@@H](C)C(=O)N[C@@H]([C@@H](C)CC)C(=O)N[C@@H]([C@@H](C)CC)C(=O)O[C@H]1C)[C@@H](C)CC [Compound 18, Ile10-teixobactin] | 0.25 (≈ 0.208 µM) | ≤0.0625 | ≤0.0625 | ≤0.0625 | 0.125 (≈ 0.104 µM) | ≤0.0625 | 0.125 (≈ 0.104 µM) | ≤0.0625 | ≤0.0625 | 1 (≈ 0.832 µM) | 0.25 (≈ 0.208 µM) | 0.5 (≈ 0.416 µM) | –
COc1c(N2C[C@@H]3CCCN[C@@H]3C2)c(F)cc2c(=O)c(C(=O)O)cn(C3CC3)c12 [moxifloxacin, reference compound] | – | – | – | – | – | – | – | – | – | – | – | – | mean corneal thickness ([9]; 24 h post treatment): 124.2±9.4 μm; mean corneal thickness ([9]; 48 h post treatment): 140.3±10.3 μm; mean log10 CFU/tissue ([9]; corneal tissues harvested after 8 dosages, ± standard error of the mean): 3.7±0.24 log10 CFU/tissue
CC[C@H](C)[C@H](NC(=O)[C@@H](Cc1ccccc1)NC)C(=O)N[C@@H](CO)C(=O)N[C@H](CCC(N)=O)C(=O)N[C@@H](C(=O)N[C@H](C(=O)N[C@@H](CO)C(=O)N[C@H]1C(=O)N[C@@H](C)C(=O)N[C@@H](CCCNC(=N)N)C(=O)N[C@@H]([C@@H](C)CC)C(=O)O[C@H]1C)[C@@H](C)CC)[C@@H](C)CC [Compound 6, Arg10-teixobactin, reference compound] | – | – | – | – | – | – | – | – | – | – | – | – | MIC (MRSA*) ([1]; MRSA ATCC 33591, Table 4A): 2 µg/mL (≈ 1.61 µM); MIC ([2]; VRE 1: VRE ATCC 700802, Table 4B): 2 µg/mL (≈ 1.61 µM); MBC ([3]; MRSA 2: MRSA DR 42412 (sputum), Table 4B): 0.5 µg/mL (≈ 0.402 µM); MIC ([4]; MRSA 3: MRSA DM21455 (eye), clinical isolate, Table 4B): 0.5 µg/mL (≈ 0.402 µM); MBC ([4]; MRSA 3: MRSA DM21455 (eye), Table 4B): 1 µg/mL (≈ 0.804 µM); MBC [5, 22]: 1 µg/mL (≈ 0.804 µM); MIC [5, 22]: 0.25 µg/mL (≈ 0.201 µM); MIC ([6]; VRE 2: VRE ATCC 29212, Table 4B): 2 µg/mL (≈ 1.61 µM); MIC ([7]; MRSA 1: MRSA ATCC 700699, Mueller Hinton Broth, Table 4B): 1 µg/mL (≈ 0.804 µM); MBC ([7]; MRSA 1: MRSA ATCC 700699, Table 4B): 2 µg/mL (≈ 1.61 µM); MIC ([8]; M. smegmatis ATCC 607, Table 4B): 1 to 2 µg/mL
CC[C@@H](C)[C@@H](NC(=O)[C@@H](CCC(N)=O)NC(=O)[C@H](CO)NC(=O)[C@@H](NC(=O)[C@@H](Cc1ccccc1)NC)[C@@H](C)CC)C(=O)N[C@H](C(=O)N[C@@H](CO)C(=O)N[C@H]1C(=O)N[C@@H](C)C(=O)N[C@@H](C(C)C)C(=O)N[C@@H]([C@@H](C)CC)C(=O)O[C@H]1C)[C@@H](C)CC [Compound 17] | 0.5 (≈ 0.421 µM) | 0.5 (≈ 0.421 µM) | 4 (≈ 3.37 µM) | 0.5 (≈ 0.421 µM) | 2 (≈ 1.68 µM) | 0.25 (≈ 0.211 µM) | 1 (≈ 0.842 µM) | 0.25 (≈ 0.211 µM) | 0.5 (≈ 0.421 µM) | 4 (≈ 3.37 µM) | 1 (≈ 0.842 µM) | 1 (≈ 0.842 µM) | –
CC[C@@H](C)[C@@H](NC(=O)[C@@H](CCC(N)=O)NC(=O)[C@H](CCCNC(=N)N)NC(=O)[C@@H](NC(=O)[C@@H](Cc1ccccc1)NC)[C@@H](C)CC)C(=O)N[C@H](C(=O)N[C@@H](CO)C(=O)N[C@H]1C(=O)N[C@@H](CCCNC(=N)N)C(=O)N[C@@H](CC(C)C)C(=O)N[C@@H]([C@@H](C)CC)C(=O)O[C@H]1C)[C@@H](C)CC [Compound 29, Arg3-Arg9-Leu10-teixobactin] (H-[dNMeF]IR[dQ][dI]IS[dT]RLI; ester 8-C) | – | 1 (≈ 0.738 µM) | – | 0.25 (≈ 0.184 µM) | – | 1 (≈ 0.738 µM) | – | 1 (≈ 0.738 µM) | 1 (≈ 0.738 µM) | – | 1 (≈ 0.738 µM) | – | MIC against MRSA ATCC 33591 ([1]; MRSA ATCC 33591): 1 µg/mL (≈ 0.738 µM); MIC [10]: <0.0625 µg/mL; MIC [11]: <0.0625 µg/mL; MIC [12]: <0.0625 µg/mL; MIC [13]: <0.0625 µg/mL; MIC [14]: <0.0625 µg/mL; MIC [15]: 1 µg/mL (≈ 0.738 µM); MIC [16]: <0.0625 µg/mL; MIC [17]: 0.5 µg/mL (≈ 0.369 µM); MIC [18]: 0.5 µg/mL (≈ 0.369 µM); MIC [19]: 1 µg/mL (≈ 0.738 µM); MIC [20]: 0.5 µg/mL (≈ 0.369 µM); MIC [21]: 2 µg/mL (≈ 1.48 µM)
